Read-outs that look alike come from different tables or passages of the source.
Columns and labels:
[1] = target: T1, peripheral cholecystokinin receptor: CCK-A (Rattus norvegicus, UniProt P30551); assay: Binding affinity for the peripheral cholecystokinin receptor (CCK A), plasma membranes of the rat pancreas, inhibition of labelled [125I]-CCK8 sulphate binding
T1 construct: plasma membranes of the rat pancreas; from tissue; host or cells: pancreas plasma membranes of male SD rats (animals from IFFA CREDO)
T1 sequence (P30551 1-444): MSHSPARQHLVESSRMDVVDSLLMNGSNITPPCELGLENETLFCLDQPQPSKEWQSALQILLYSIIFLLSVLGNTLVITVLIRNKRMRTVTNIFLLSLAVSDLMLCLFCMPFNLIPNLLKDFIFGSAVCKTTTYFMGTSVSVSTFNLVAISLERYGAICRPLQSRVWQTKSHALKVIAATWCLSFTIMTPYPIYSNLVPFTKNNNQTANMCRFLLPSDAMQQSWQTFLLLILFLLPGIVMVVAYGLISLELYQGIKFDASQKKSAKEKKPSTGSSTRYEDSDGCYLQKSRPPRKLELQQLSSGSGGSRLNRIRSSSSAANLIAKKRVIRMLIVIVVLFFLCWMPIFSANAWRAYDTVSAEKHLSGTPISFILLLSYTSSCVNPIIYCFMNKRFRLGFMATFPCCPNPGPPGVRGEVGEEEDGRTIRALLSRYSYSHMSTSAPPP
Source text: (§1) The "in vitro" studies consisted in determining the binding affinity of the compounds of the invention for the cholecystokinin and gastrin receptors.
(§2) The aim of these experiments was to determine the solution concentrations of products of formula (I) which were capable of inhibiting in relation to the receptors in question fifty percent of the cholecystokinin bonds, labelled with […] (abbreviated below as [1251]-CCK8 sulphate) or in the case of the iodine-125-labelled gastrin receptor with the following receptors:
plasma membranes of the rat pancreas (male SD, rats, IFFA CREDO 200-225 g) (peripheral cholecystokinin receptor: CCK-A),
(§3) in accordance with the experimental protocol described by INNIS, R. B. and S. M. SNYDER, Eur. J. Pharmacol., 1980 65 123-124.
(§4) The unit of measurement is the nanomole.

[2] = target: T2, central cholecystokinin receptor: CCK-B (Cavia porcellus, UniProt H0VZC5); assay: Binding affinity for the central cholecystokinin receptor (CCK B), guinea-pig brain membranes, inhibition of labelled [125I]-CCK8 sulphate binding
T2 construct: guinea-pig brain membranes; from tissue; host or cells: brain membranes of male guinea pigs (animals from COBLABO)
T2 sequence (H0VZC5 1-426): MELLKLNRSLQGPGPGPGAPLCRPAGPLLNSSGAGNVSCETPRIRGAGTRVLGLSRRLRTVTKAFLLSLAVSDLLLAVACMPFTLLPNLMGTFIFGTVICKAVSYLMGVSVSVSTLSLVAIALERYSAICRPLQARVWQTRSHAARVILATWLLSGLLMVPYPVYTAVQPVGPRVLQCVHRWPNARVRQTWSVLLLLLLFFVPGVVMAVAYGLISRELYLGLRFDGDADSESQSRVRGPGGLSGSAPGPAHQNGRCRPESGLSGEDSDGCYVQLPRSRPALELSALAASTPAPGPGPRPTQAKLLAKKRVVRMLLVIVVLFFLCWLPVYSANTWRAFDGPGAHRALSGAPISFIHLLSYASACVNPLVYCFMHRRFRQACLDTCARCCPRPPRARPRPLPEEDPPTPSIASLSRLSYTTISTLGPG
Source text: (§5) The "in vitro" studies consisted in determining the binding affinity of the compounds of the invention for the cholecystokinin and gastrin receptors. […]
(§6) guinea-pig brain membranes (males, COBLABO, 325-350 g) (central cholecystokinin receptor: CCK-B).
as §3, §4

gastrin receptor [3] = target: T3, gastrin receptor (Cavia porcellus, UniProt H0VZC5); assay: Binding affinity for the gastrin receptor, guinea-pig gastric glands, iodine-125-labelled gastrin
T3 construct: guinea-pig gastric glands; from tissue; host or cells: gastric glands of male guinea pigs (animals from COB LABO)
T3 sequence (H0VZC5 1-426): T2 sequence (H0VZC5 1-426)
Source text: as §1, §2
(§7) guinea-pig gastric glands (males, COB LABO, 325-350 g) in accordance with the method described by PRAISSMAN, M., M. E. WALDEN and C. PELLECHIA. Journal of Receptor Research, 1983 3 647-665 (gastrin receptor).
as §4

[4] = system: gastrin-induced acid secretion; assay: Gastrin-induced acid secretion in the rat (chronic gastric fistula, pentagastrin perfusion); type: in vivo; conditions: 1 mg/kg oral; for Gastric secretion % inhibition: SD male rat, pentagastrin 6 μg/kg/h i.v.
Procedure: The activity of the products of the invention in relation to gastrin-induced acid secretion in the rat has been studied by the method described by Pascaud, X. P. , A. R. Roger and M. J. H. Genton. Digestion, […] 16 57-68. The method consists in collecting the gastric acid secretion over two consecutive 2 hour periods in SD male rats (IFFA CREDO 250-300 g), provided with a chronic gastric fistula and continuously perfused i.v. with a pentagastrin solution (Peptavlon, ICI, 6 μg/kg/h). The inhibition of this secretion by the oral administration of 1 mg/kg product of the invention has been determined.

[5] = system: gastric evacuation, slowed down by CCK-8 (peripheral receptor CCK-A); assay: Gastric evacuation slowed down by CCK-8 in the mouse; type: in vivo; conditions: oral; for ED50: Mus musculus, SWISS male mice, CCK-8 80 μg/kg subcutaneous
Procedure: The antagonist activity of CCK on the digestive motor effects of the hormone has been examined in relation to the gastric evacuation, slowed down by the subcutaneous administration of CCK-8 (80 μg/kg) in SWISS male mice (IFFA CREDO 16-20 g), using the technique described by Lotti, V. J., D. J. Cerino, P. J. Kling and R. S. L. Chang. Life Sciences, 1986 39, 1631-1638.

[6] = system: central cholecystokinin receptor: CCK-B; assay: Binding affinity for the central cholecystokinin receptor (CCK B), guinea-pig brain membranes, inhibition of labelled [125I]-CCK8 sulphate binding; conditions: for Selectivity CCK B/CCK A: IC50 CCK A / IC50 CCK B
Source text: as §5, §6, §3, §4

gastrin receptor [7] = assay: Binding affinity for the gastrin receptor, guinea-pig gastric glands, iodine-125-labelled gastrin; conditions: for Selectivity GASTRIN/CCK A: IC50 CCK A / IC50 gastrin
Source text: as §1, §2, §7, §4

[8] = system: A receptors of cholecystokinin; conditions: published, in vitro; cited from earlier work
gastrin receptors = conditions: published, in vitro, cited from earlier work
[9] = guinea-pig brain membranes; Table I; read-out: IC50 Receptor bond CCK B
[10] = guinea-pig gastric glands; Table I; read-out: IC50 Receptor bond Gastrin
[11] = in comparison with compound XXa

Row | Structure (SMILES) | IC50 [1] | IC50 [2, 9] | IC50 (gastrin receptor [3]; [10]) | times less active on the gastrin receptor than XXa (gastrin receptor [3]; [11]) | other results
1 | Cc1cccc(NC(=O)NC2N=C(c3ccccc3)c3cccc4c3N(CC4)C2=O)c1 (racemic) [Example 1, (4R,S)-N-(keto-3-phenyl-6-tetrahydro-1,2,3,4-pyrrolo[3,2,1-j,k]benzodiazepine[1,4]-yl-4)-N'-(methyl-3-phenyl-)-urea] | 59.6 nM | 431 nM | 14.4 nM | – | –
2 | Cc1cccc(NC(=O)NC2N=C(c3ccccc3)c3cccc4c3N(CCC4)C2=O)c1 (racemic) [Example 5, (5R,S)-N-(keto-4-phenyl-7-hexahydro-1,2,3,3a,4,5-pyrido [3,2,1-j,k]benzodiazepine-[1,4]-yl-5)-N'-(methyl-3-phenyl-)-urea] | 84.2 nM | 251 nM | 1.5 nM | 3 times | activity compared with reference compound XXa (gastrin-specific compounds) (gastrin receptor [3]; in words): similar
3 | O=C(Nc1ccc([N+](=O)[O-])cc1)NC1N=C(c2ccccc2)c2cccc3c2N(CCC3)C1=O (racemic) [Example 8, (5R,S)-N-(keto-4-phenyl-7-hexahydro-1,2,3,3a,4,5-pyrido[3,2,1-j,k]benzodiazepine-[1,4]-yl-5)-N'-(nitro-4-phenyl-)-urea] | 3080 nM | 1810 nM | 60 nM | – | –
4 | O=C1C(NC(=S)Nc2ccc(Br)cc2)N=C(c2ccccc2)c2cccc3c2N1CCC3 (racemic) [Example 10, (5R,S)-N-(keto-4-phenyl-7-hexahydro-1,2,3,3a,4,5-pyrido[3,2,1-j-k]benzodiazepine-[1,4]-yl-5)-N'-(bromo-4-phenyl-)-thiourea] | 3040 nM | 88 nM | 3.2 nM | 1.5 times | activity compared with reference compound XXa (gastrin-specific compounds) (gastrin receptor [3]; in words): similar; Gastric secretion % inhibition [4]: 31%; inhibiting activity on gastrin-induced acid secretion compared with XXa ([4]; in words): identical; ED50 [5]: 15.5 mg/kg; times more product required than XXa for 50% reduction of the inhibiting effects of CCK-8 on gastric evacuation ([5]; in comparison with XXa): 100 times
5 | O=C(Nc1cnc2ccccc2c1)NC1N=C(c2ccccc2)c2cccc3c2N(CCC3)C1=O (racemic) [Example 23, (5R,S)-N-(keto-4-phenyl-7-hexahydro-1,2,3,3a,4,5-pyrido[3,2,1-j,k]benzodiazepine[1,4]-yl-5)-N'-(quinolinyl-3-)-urea] | 389 nM | 176 nM | 298 nM | ~60 times | factor less active on the CCK B receptor than XXa [2, 11]: 2 factor; higher selectivity for the CCK B receptor than XXa [6, 11]: ~30 times
6 | O=C1C(NC(=S)Nc2ccc(Br)cc2)N=C(c2ccccc2)c2cccc3c2N1CCC3 (stereo in doubt) [Example 26, (5S)-N-(keto-4-phenyl-7-hexahydro-1,2,3,3a,4,5-pyrido[3,2,1-j,k]benzodiazepine[1,4]-yl-4)-N'-(bromo-4-phenyl-)-thiourea] | > 10000 nM | 137 nM | 36 nM | – | Selectivity CCK B/CCK A [6]: > 70; Selectivity GASTRIN/CCK A (gastrin receptor [7]): > 250
7 | Cc1cccc(NC(=O)N[C@@H]2N=C(c3ccccc3)c3cccc4c3N(CC4)C2=O)c1 [Example 2, (4R)-N-(keto-3-phenyl-6-tetrahydro-1,2,3,4-pyrrolo[3,2,1-j,k]benzodiazepine-[1,4]-yl-4)-N'-(methyl-3-phenyl-)-urea] | 1020 nM | 99.9 nM | 85.9 nM | 20 times | activity on the CCK A receptor compared with XXa ([1]; in words): of the same order; activity on the CCK B receptor compared with XXa ([2]; in words): of the same order
8 | Cc1cccc(NC(=O)N[C@@H]2N=C(c3ccccc3)c3cccc4c3N(CCC4)C2=O)c1 [Example 7, (+)-(5R)-N-(keto-4-phenyl-7-hexahdyro-1,2,3,3a,4,5-pyrido [3,2,1-j,k]benzodiazepine[1,4]-yl-5)-N'-(methyl-3-phenyl-)-urea] | 1730 nM | 255 nM | 40.5 nM | – | –
9 | Cc1cccc(NC(=O)N[C@@H]2N=C(c3ccccc3)c3ccccc3N(C)C2=O)c1 [XXa, reference compound] | – | – | – | – | IC50 ([1]; rat pancreas plasma membranes, Table I, read-out: IC50 Receptor bond CCK A): 1420 nM; IC50 ([2]; read-out: IC50 Receptor bond CCK B; guinea-pig brain membranes; Table I): 81.4 nM; Selectivity CCK B/CCK A [6]: 17; IC50 (gastrin receptor [3]; read-out: IC50 Receptor bond Gastrin; guinea-pig gastric glands; Table I): 4.7 nM; Selectivity GASTRIN/CCK A (gastrin receptor [7]): 302; CCK-A/gastrin activity ratio reproduced by the Applicant (times more favourable to gastrin receptors) (gastrin receptor [7]; ratio 1419/4.7): about 300 times; Gastric secretion % inhibition [4]: 29%; ED50 [5]: 0.15 mg/kg; CCK-A activity, term of the CCK-A/gastrin ratio [8]: 290; gastrin activity, term of the CCK-A/gastrin ratio (gastrin receptors): 1.9; CCK-A/gastrin activity ratio (times more favourable to gastrin receptors) (gastrin receptors; ratio 290/1.9): about 150 times
